Data published in patent publication US10709714B2 (CL BioSciences LLC, priority 2013, dated 2020).
“Also recorded” adds a separate entry of the source. Marks after values point to notes of the source that are not given here.

Experiments:
[1] = tested on: calvarial osteoblasts, hFOB, BMMSCs; test: Gene expression in bone-derived cells (ALKP, M-CSF, RANKL); format: cell-based, mouse, human; details: YF476 1 nM, preincubation
Procedure: This was reversed by the selective CCK2 receptor antagonist, YF476 (1 nM).

ovariectomized CD-1 mice [2] = test: Bone strength (Instron), Model 1 mouse OVX; format: in vivo
ovariectomized Mastomys [3] = test: Circulating blood markers, Model 3 Mastomys OVX; format: in vivo
Procedure: CON=control animals, OVX=ovariectomized animals, OVX+GA=gastrin antagonist treated ovariectomized animals. Mean±SEM. *p<0.05 vs. CON, **p<0.05 vs. OVX alone.
Circulating bone biomarkers were also altered by OVX. Specifically, PINP was increased (0.16±0.03 ng/ml vs. 0.13±0.01, p<0.05) as was CTx-1 (0.24±0.17 ng/ml vs. 0.03±0.03, p<0.05) while osteocalcin was elevated (1.6±1.1 ng/ml vs. 0.4±0.16, p<0.05). Treatment with the antagonist attenuated each of these three ovariectomy-mediated alterations.

ovariectomized CD-1 mice [4] = test: MicroCT of trabecular and cortical bone, Model 1 mouse OVX; format: in vivo
ovariectomized CD rats = test: Bone strength (Instron), Model 2 rat OVX; format: in vivo
ovariectomized CD-1 mice [5] = test: Bone histomorphometry, Model 1 mouse OVX; format: in vivo; details: OVX CD-1 mice; GA single s.c.; 8 weeks
Text: Patterns of bone mineralization (BM: decreased), resorption cavities (RC: increased) and osteoclasts (stained multinuclear cells (two arrows): increased) were affected by OVX. These effects were reversed by drug treatment. In one aspect, this means that targeting CCK2 receptors normalizes bone morphology irrespective of low estrogen levels.
Gastrin-antagonist treatment reversed these phenomena (FIG. 45).

[6] = tested on: human PTH cells co-cultured with MTC-SK cell line; test: PTH cell / MTC-SK co-culture: PTH and calcitonin transcription and secretion; format: cell-based; details: preincubation 10 mins, YF476 10 nM
Procedure: Human PTH cells isolated from surgical specimens were co-cultured with the MTC-SK cell line. […] These effects could be reversed by preincubation (10 mins) with the selective CCK2 receptor antagonist, YF476 (10 nM). […] PET=polyester membrane ([…]).
These effects were reversed by preincubation with the selective CCK2 antagonist, YF476.

ovariectomized Mastomys [7] = test: MicroCT of trabecular and cortical bone, Model 3 Mastomys OVX; format: in vivo
[8] = tested on: calvarial osteoblasts, hFOB, BMMSCs; test: Bone mineralization of bone-derived cells (fluorescent binding to hydroxyapatite); format: cell-based, mouse, human; details: pre-incubation
Procedure: The binding of fluorescent Osteomalge to the hydroxyapatite portion of mineralized nodules was measured.

[9] = OVX CD-1 mice + omeprazole, GA 15 ug/animal single s.c., 8 weeks
[10] = OVX CD-1 mice, GA-treated vs control
[11] = OVX Mastomys + loxitidine, GA 10 ug/animal single s.c., 8 weeks
[12] = OVX Mastomys + loxitidine, GA 10 ug/animal single s.c., 8 weeks, listed as GA
[13] = OVX Mastomys + loxitidine, GA 10 ug/animal single s.c., 8 weeks, listed as antagonist
[14] = OVX Mastomys, GA-treated vs control
[15] = OVX CD-1 mice + omeprazole, GA 15 ug/animal single s.c., 8 weeks, cortical bone
[16] = OVX CD-1 mice + omeprazole, GA 15 ug/animal single s.c., 8 weeks, trabecular bone
[17] = OVX CD-1 mice, GA-treated vs control, cortical bone
[18] = OVX CD-1 mice, GA-treated vs control, trabecular bone
[19] = OVX CD rats + omeprazole, GA 50 ug/animal single s.c., 8 weeks
[20] = OVX CD rats, GA-treated vs control
[21] = OVX Mastomys + loxitidine, GA 10 ug/animal single s.c., 8 weeks, cortical bone
[22] = OVX Mastomys + loxitidine, GA 10 ug/animal single s.c., 8 weeks, trabecular bone
[23] = OVX Mastomys + loxitidine, GA 10 ug/animal single s.c., 8 weeks, trabecular bone, listed as GA
[24] = OVX Mastomys + loxitidine, GA 10 ug/animal single s.c., 8 weeks, trabecular bone, listed as Gastrin antagonist
[25] = OVX Mastomys, GA-treated vs control, cortical bone
[26] = OVX Mastomys, GA-treated vs control, trabecular bone

Compound: CNc1cccc(NC(=O)N[C@@H]2N=C(c3ccccn3)c3ccccc3N(CC(=O)C(C)(C)C)C2=O)c1 [YF476, netazepide]
- effect on gastrin-inhibited gene expression [1]: reversed and normalized
- Max Load (ovariectomized CD-1 mice [2]; [9]): 44.1
- Stiffness (ovariectomized CD-1 mice [2]; [9]): 285
- Total Work (ovariectomized CD-1 mice [2]; [9]): 19.4
- Yield (Stiffness) (ovariectomized CD-1 mice [2]; [9]): 256
- Fracture Load (ovariectomized CD-1 mice [2]; OVX CD-1 mice + omeprazole, GA 15 ug/animal single s.c., 8 weeks, listed as GA): 42.8
- Fracture Load (ovariectomized CD-1 mice [2]; OVX CD-1 mice + omeprazole, GA 15 ug/animal single s.c., 8 weeks, listed as gastrin antagonist): 43±6
- % Change Fracture Load (ovariectomized CD-1 mice [2]; [10]): −24%*
- % Change Max Load (ovariectomized CD-1 mice [2]; [10]): −28%*
- % Change Stiffness (ovariectomized CD-1 mice [2]; [10]): −3%**
- % Change Total Work (ovariectomized CD-1 mice [2]; [10]): −4%**
- % Change Yield (Stiffness) (ovariectomized CD-1 mice [2]; [10]): −5%**
- CTX-1 (ovariectomized Mastomys [3]; [11]): 0.1 ng/mL
- ESR (circulating estrogen) (ovariectomized Mastomys [3]; [11]): 2.54 pg/mL
- Osteocalcin (ovariectomized Mastomys [3]; [11]): 1.13 ng/mL
- PINP (ovariectomized Mastomys [3]; [11]): 0.13 ng/mL
- Gastrin (circulating) (ovariectomized Mastomys [3]; [12]): 2703 pg/mL
- PTH (circulating) (ovariectomized Mastomys [3]; [12]): 151 pg/mL
- Gastrin (circulating) (ovariectomized Mastomys [3]; [13]): 2704 ± 430 pg/mL
- PTH (circulating) (ovariectomized Mastomys [3]; [13]): 150 ± 37 pg/mL
- % Change CTX-1 (ovariectomized Mastomys [3]; [14]): +230%
- % Change ESR (ovariectomized Mastomys [3]; [14]): −70%*
- % Change Gastrin (ovariectomized Mastomys [3]; [14]): −27%**
- % Change Osteocalcin (ovariectomized Mastomys [3]; [14]): +13%
- % Change PINP (ovariectomized Mastomys [3]; [14]): 0%*^, **
- % Change PTH (ovariectomized Mastomys [3]; [14]): −48%*^, **
- BS (ovariectomized CD-1 mice [4]; [15]): 11.3
- BV/TV (ovariectomized CD-1 mice [4]; [15]): 0.93
- Ct. Th (ovariectomized CD-1 mice [4]; [15]): 0.21
- pMOI (ovariectomized CD-1 mice [4]; [15]): 0.35
- Dens (Apparent Density, cortical) (ovariectomized CD-1 mice [4]; OVX CD-1 mice + omeprazole, GA 15 ug/animal single s.c., 8 weeks, cortical bone, listed as GA): 1025
- Dens (Apparent Density, cortical) (ovariectomized CD-1 mice [4]; OVX CD-1 mice + omeprazole, GA 15 ug/animal single s.c., 8 weeks, cortical bone, listed as Gastrin-antagonist): 1025±37
- BS (ovariectomized CD-1 mice [4]; [16]): 16.8
- BV/TV (ovariectomized CD-1 mice [4]; [16]): 0.123
- Conns-Dens (ovariectomized CD-1 mice [4]; [16]): 128.6
- SMI (ovariectomized CD-1 mice [4]; [16]): 1.38
- Tb. N (ovariectomized CD-1 mice [4]; [16]): 2.43
- Tb. Sp (ovariectomized CD-1 mice [4]; [16]): 0.528
- Tb. Th (ovariectomized CD-1 mice [4]; [16]): 0.051
- Dens (Apparent Density, trabecular) (ovariectomized CD-1 mice [4]; OVX CD-1 mice + omeprazole, GA 15 ug/animal single s.c., 8 weeks, trabecular bone, listed as GA): 70.7
- Dens (Apparent Density, trabecular) (ovariectomized CD-1 mice [4]; OVX CD-1 mice + omeprazole, GA 15 ug/animal single s.c., 8 weeks, trabecular bone, listed as Gastrin antagonist): 70.7±19
- % Change BS (ovariectomized CD-1 mice [4]; [17]): −15%*
- % Change BV/TV (ovariectomized CD-1 mice [4]; [17]): 2%*
- % Change Ct. Th (ovariectomized CD-1 mice [4]; [17]): +39%*^,**
- % Change Dens (Apparent Density, cortical) (ovariectomized CD-1 mice [4]; [17]): −11%*^,**
- % Change pMOI (ovariectomized CD-1 mice [4]; [17]): −11%
- % Change BS (ovariectomized CD-1 mice [4]; [18]): −32%*^, **
- % Change BV/TV (ovariectomized CD-1 mice [4]; [18]): −33%*^, **
- % Change Conns-Dens (ovariectomized CD-1 mice [4]; [18]): −62%*^, **
- % Change Dens (Apparent Density, trabecular) (ovariectomized CD-1 mice [4]; [18]): −60%*^, **
- % Change SMI (ovariectomized CD-1 mice [4]; [18]): +20%**
- % Change Tb. N (ovariectomized CD-1 mice [4]; [18]): −30%*^, **
- % Change Tb. Sp (ovariectomized CD-1 mice [4]; [18]): +82%*
- % Change Tb. Th (ovariectomized CD-1 mice [4]; [18]): +28%*
- Fracture Load (ovariectomized CD rats; [19]): 276
- Max Load (ovariectomized CD rats; [19]): 282
- Stiffness (ovariectomized CD rats; [19]): 565
- Total Work (ovariectomized CD rats; [19]): 276
- Yield (Stiffness) (ovariectomized CD rats; [19]): 508
- % Change Fracture Load (ovariectomized CD rats; [20]): −8%
- % Change Max Load (ovariectomized CD rats; [20]): 0%
- % Change Stiffness (ovariectomized CD rats; [20]): −2%**
- % Change Total Work (ovariectomized CD rats; [20]): 0%
- % Change Yield (Stiffness) (ovariectomized CD rats; [20]): −2%**
- effect on OVX changes in bone mineralization, resorption cavities and TRAP-positive osteoclasts (ovariectomized CD-1 mice [5]): reversed
- effect on gastrin effects in co-culture [6]: reversed
- BS (ovariectomized Mastomys [7]; [21]): 14.21
- BV/TV (ovariectomized Mastomys [7]; [21]): 0.953
- Ct. Th (ovariectomized Mastomys [7]; [21]): 0.288
- Dens (Apparent Density, cortical) (ovariectomized Mastomys [7]; [21]): 1159
- pMOI (ovariectomized Mastomys [7]; [21]): 1.10
- BS (ovariectomized Mastomys [7]; [22]): 19.2
- BV/TV (ovariectomized Mastomys [7]; [22]): 0.175
- Conns-Dens (ovariectomized Mastomys [7]; [22]): 124.1
- SMI (ovariectomized Mastomys [7]; [22]): 0.74
- Tb. Sp (ovariectomized Mastomys [7]; [22]): 0.457
- Dens (Apparent Density, trabecular) (ovariectomized Mastomys [7]; [23]): 187.1
- Tb. N (ovariectomized Mastomys [7]; [23]): 2.38
- Tb. Th (ovariectomized Mastomys [7]; [23]): 0.086
- Dens (Apparent Density, trabecular) (ovariectomized Mastomys [7]; [24]): 187±66
- Tb. N (ovariectomized Mastomys [7]; [24]): 2.4±0.6
- Tb. Th (ovariectomized Mastomys [7]; [24]): 0.08±0.01
- % Change BS (ovariectomized Mastomys [7]; [25]): −1%
- % Change BV/TV (ovariectomized Mastomys [7]; [25]): 0%
- % Change Ct. Th (ovariectomized Mastomys [7]; [25]): −1%
- % Change Dens (Apparent Density, cortical) (ovariectomized Mastomys [7]; [25]): −4%
- % Change pMOI (ovariectomized Mastomys [7]; [25]): −4%
- % Change BS (ovariectomized Mastomys [7]; [26]): +4%**
- % Change BV/TV (ovariectomized Mastomys [7]; [26]): +27%**
- % Change Conns-Dens (ovariectomized Mastomys [7]; [26]): +28%
- % Change Dens (Apparent Density, trabecular) (ovariectomized Mastomys [7]; [26]): +19%**
- % Change SMI (ovariectomized Mastomys [7]; [26]): 0%
- % Change Tb. N (ovariectomized Mastomys [7]; [26]): +18%**
- % Change Tb. Sp (ovariectomized Mastomys [7]; [26]): −20%**
- % Change Tb. Th (ovariectomized Mastomys [7]; [26]): +25%*^; **
- effect on gastrin inhibition of mineralization [8]: inhibited; also recorded: not reversed
